In PubChem BioAssay (NCI):
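Cultured in 96-well plates, cells were exposed to test compound for 48 hours across five concentrations. GI50 = concentration required for 50% inhibition of growth. At the TGI there is no net growth.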

Key:
Assay in all cases: inhibition of tumour cell growth, NCI panel, 48 h
EKVX NSCLC = tested on: EKVX NSCLC
HL-60(TB) leukemia = tested on: HL-60(TB) leukemia
MOLT-4 leukemia = tested on: MOLT-4 leukemia
NCI-H23 lung = tested on: NCI-H23 lung
RXF 393 renal = tested on: RXF 393 renal
SK-MEL-2 melanoma = tested on: SK-MEL-2 melanoma
SN12C renal = tested on: SN12C renal
SNB-75 CNS = tested on: SNB-75 CNS
UO-31 renal = tested on: UO-31 renal
T-47D breast = tested on: T-47D breast

Compound | TGI (EKVX NSCLC) | TGI (HL-60(TB) leukemia) | TGI (MOLT-4 leukemia) | TGI (NCI-H23 lung) | TGI (RXF 393 renal) | TGI (SK-MEL-2 melanoma) | TGI (SN12C renal) | TGI (SNB-75 CNS) | TGI (UO-31 renal) | GI50 (NCI-H23 lung) | GI50 (RXF 393 renal) | GI50 (SN12C renal) | GI50 (HL-60(TB) leukemia) | GI50 (MOLT-4 leukemia) | GI50 (SK-MEL-2 melanoma) | GI50 (SNB-75 CNS) | GI50 (T-47D breast) | TGI (T-47D breast) | GI50 (UO-31 renal) | GI50 (EKVX NSCLC)
CC(C)C(=O)Nc1nc2c(ncn2C2OC(CO)C(O)C2O)c(=O)[nH]1 (stereo not given) | > 100 µM | > 100 µM | > 100 µM | > 100 µM | > 100 µM | > 100 µM | > 100 µM | > 100 µM | > 100 µM |  |  |  |  |  |  |  |  |  |  | 
COc1ncc(-c2ccc3ncnc(Nc4cccc(Cl)c4)c3c2)cc1NS(=O)(=O)C1CC1 |  |  |  | > 100 µM | > 100 µM |  | > 100 µM |  |  | 3.8 µM | 0.519 µM | 1.58 µM |  |  |  |  |  |  |  | 
O=[N+]([O-])c1ccc(N2N=C(c3ccc(NCc4nc5ccccc5[nH]4)cc3)CC2c2ccco2)cc1 (stereo not given) |  | 48.9 µM | 31.3 µM | 55.9 µM | > 100 µM |  | 61.9 µM | > 100 µM | 55.4 µM |  |  |  |  |  |  |  |  |  |  | 
CCOP(=O)(OCC)OC1C=CC2CCC1C2 (stereo not given) | > 100 µM | > 100 µM | > 100 µM | > 100 µM | > 100 µM | > 100 µM | > 100 µM | > 100 µM | > 100 µM |  |  |  |  |  |  |  |  |  |  | 
COc1cc(C(=O)N2CCN(c3ncccn3)CC2)c(N)cc1OCc1ccccc1 |  | > 100 µM | > 100 µM | > 100 µM | > 100 µM | > 100 µM | > 100 µM | > 100 µM | > 100 µM | > 100 µM | > 100 µM | 63.9 µM | > 100 µM | 81.6 µM | > 100 µM | 50.7 µM | > 100 µM | > 100 µM | > 100 µM | 
O=S(=O)(c1ccccc1)C1CN2OC1(S(=O)(=O)c1ccccc1)CC2c1ccc(Br)cc1 (stereo not given) | > 100 µM | > 100 µM | > 100 µM | > 100 µM | 46.5 µM | > 100 µM | > 100 µM | 22.1 µM | > 100 µM |  |  |  |  |  |  |  |  |  |  | 
CCCO/S(=N\S(=O)(=O)c1ccccc1)c1ccccc1[N+](=O)[O-] (stereo not given) | > 100 µM |  | > 100 µM | > 100 µM |  | > 100 µM | > 100 µM | > 100 µM | > 100 µM |  |  |  |  |  |  |  |  |  |  | 
Cc1ccc(S(=O)(=O)c2ccc(N)cc2)cc1 | > 100 µM | > 100 µM | > 100 µM | > 100 µM | > 100 µM | > 100 µM |  | > 100 µM | > 100 µM |  |  |  |  |  |  |  |  |  |  | 
NC(=O)OCCn1cc(-c2nc(-c3c[nH]c4ncccc34)cs2)c2ccccc21 | 7.68 µM | 5.45 µM | 8.61 µM | > 100 µM | 5.56 µM | 3.96 µM | 32.4 µM |  | 4.65 µM | 2.02 µM | 1.78 µM | 2.46 µM | 2.12 µM | 2.19 µM | 1.52 µM |  |  |  | 0.621 µM | 1.3 µM
COc1ccc(-n2c(C)cc(-c3ccccc3)c2C)cc1 |  | 9.92 µM |  | 16.2 µM | 5.31 µM | 3.93 µM | > 100 µM | > 100 µM | 95.8 µM | 2.16 µM | 1.7 µM | 2.84 µM | 2.88 µM |  | 1.7 µM | 3.37 µM | 1.65 µM | 67.2 µM | 2.24 µM | 
O=Cc1ccc2c(c1-c1c(C=O)ccc3c1OCO3)OCO2 | > 100 µM | > 100 µM | > 100 µM | > 100 µM |  | > 100 µM | > 100 µM | > 100 µM | > 100 µM |  |  |  |  |  |  |  |  |  |  | 
Cc1cc(C)c(/C=C2\C(=O)Nc3ccc(NC(=O)CCCCCCC(=O)NO)cc32)[nH]1 |  | > 100 µM | 35.3 µM | > 100 µM | > 75.2 µM | 49.8 µM | > 100 µM | > 100 µM | > 100 µM | 3.79 µM | 1.17 µM | > 20.4 µM | 0.506 µM | 0.43 µM | 1.89 µM | 0.227 µM |  |  | > 100 µM | 
O=P1(c2ccccc2)CCCCC1 | > 100 µM | > 100 µM | > 100 µM | > 100 µM | > 100 µM | > 100 µM | > 100 µM | > 100 µM | > 100 µM |  |  |  |  |  |  |  |  |  |  | 
CNS(=O)(=O)NNS(=O)(=O)c1ccc(Br)cc1 | > 100 µM | > 100 µM |  | > 100 µM | > 100 µM | > 100 µM |  | > 100 µM | > 100 µM |  |  |  |  |  |  |  |  |  |  | 
Cc1cc(C)c(NC(=O)c2sc3nc4c(cc3c2N)CN(Cc2ccccc2)CC4)c(C)c1 |  |  | > 100 µM | > 100 µM | 18.5 µM | > 100 µM | > 100 µM | 11 µM | 93.9 µM | 4.51 µM | 2.45 µM | 5.6 µM |  | 4.15 µM | 5.59 µM | 2.35 µM | 2.62 µM | > 100 µM | 4.78 µM | 
Cc1cc(NS(=O)(=O)c2ccc(Nc3c4ccccc4nc4c(C(=O)N5CCN(CCO)CC5)ccc(Cl)c34)cc2)no1 |  | > 100 µM | > 100 µM | > 100 µM | > 100 µM | > 100 µM | > 100 µM | > 100 µM | > 100 µM |  |  |  |  |  |  |  |  |  |  | 
Cc1ccc(C)c(N=C2NC(=O)C(CC(=O)Nc3ccc(Cl)cc3Cl)S2)c1 (stereo not given) | > 100 µM | > 100 µM | > 100 µM | > 100 µM | > 100 µM | > 100 µM | > 100 µM | > 100 µM | > 100 µM |  |  |  |  |  |  |  |  |  |  | 
COc1cc2c(c(OC)c1OC)-c1ncc3cc4c(cc3c1C2)OCO4 | 51.7 µM | > 100 µM |  |  | 83.8 µM | > 100 µM | 40.8 µM | > 100 µM | 74.6 µM |  | 24.2 µM | 13.4 µM | 26.3 µM |  | 38.9 µM | 79.4 µM |  |  | 12.5 µM | 15.6 µM
CC(=O)O[C@H]1CCC2[C@@H]3CCC4Nc5[nH]ncc5C[C@]4(C)C3CC[C@@]21C (stereo not given in full) | > 100 µM | 42.5 µM | 58.6 µM | > 100 µM | > 100 µM | > 100 µM | > 100 µM | > 100 µM | > 100 µM |  |  |  |  |  |  |  |  |  |  | 
CC(C)C(=O)NS(=O)(=O)c1ccccc1 | > 100 µM | > 100 µM | > 100 µM | > 100 µM | > 100 µM | > 100 µM | > 100 µM | > 100 µM | > 100 µM |  |  |  |  |  |  |  |  |  |  | 
